{"source": "patent US20150368248A1", "about": "“2-SUBSTITUTED-6-BIARYLMETHYLAMINO-9-CYCLOPENTYL-9H-PURINE DERIVATIVES, USE THEREOF AS MEDICAMENTS, AND PHARMACEUTICAL COMPOSITIONS” (UNIVERZITA PALACKEHO V OLOMOUCI, priority 2013, published 2015)", "key": {"HepG2 and PLC cells [1]": {"tested_on": "HepG2 and PLC cells", "test": "Flow cytometry of cellular DNA content", "assay_type": "cell-based, human", "details": "24 hours", "procedure": "The analysis of cellular DNA content was performed with a multicolor BD LSRFortessa cell analyzer (Becton Dickinson, Franklin Lakes, USA). Prior to the cytofluorometric measurement, about 5×10^5 cells were washed with phosphate buffered saline (PBS), fixed in 70% ethanol, washed again with PBS and treated with 100 μg RNAse A/50 μg propidium iodide per ml for 10 minutes to stain cellular DNA. The percentage of cells in the various cell cycle positions were calculated using a software package from the same manufacturer."}, "[2]": {"tested_on": "3sp (formerly described as HCC-1.1)", "test": "MTT cell viability assay (Example 40)", "assay_type": "cell-based", "details": "Homo sapiens, 72 hours", "procedure": "(§1) The human hepatoma cell lines and HepG2, PLC/PRF/5 (PLC), Hep3B and 3sp (formerly described as HCC-1.1) were cultivated in RPMI 1640 and 10% fetal calf serum (FCS) as described (31, 32). All cells were kept at 37° C. and 5% CO2 and were routinely screened for the absence of mycoplasma.\n(§2) Cell viability was determined using the 3-(4,5 dimethylthiazol-2-yl)-2,5-diphenyltetrazolium bromide (MTT) assay. Briefly, cells were seeded in triplicates at a density of 6×10^3 cells per well. After 24 hours, cells were incubated with drug-containing medium for 72 hours. Cells were incubated with MTT solution (5 mg/ml; Sigma, St. Louis, USA) and medium was replaced with DMSO after five hours. The absorbance was measured at 620 nm by employing a microplate reader (Asys HiTech, Salzburg, Austria). MTT assays were repeated 3 times for each drug application and untreated cells were used as reference. IC50 values were obtained by log-linear interpolation of data points and are depicted by dose-response curves using the software GraphPad Prism® 5.01."}, "PLC/PRF/5 (PLC)": {"tested_on": "PLC/PRF/5 (PLC)", "test": "MTT cell viability assay (Example 40)", "assay_type": "cell-based", "details": "Homo sapiens, 72 hours", "procedure": "as §1, §2"}, "HepG2": {"tested_on": "HepG2", "test": "MTT cell viability assay (Example 40)", "assay_type": "cell-based", "details": "Homo sapiens, 72 hours", "procedure": "as §1, §2"}, "Hep3B": {"tested_on": "Hep3B", "test": "MTT cell viability assay (Example 40)", "assay_type": "cell-based", "details": "Homo sapiens, 72 hours", "procedure": "as §1, §2"}, "HepG2 and PLC cells [3]": {"tested_on": "HepG2 and PLC cells", "test": "Clonogenic survival assay", "assay_type": "cell-based, human", "details": "0.2 μM", "procedure": "To analyze the clonogenic growth behavior of cell populations on tissue culture plastic, 500 cells were seeded in a 6-well plate and, either untreated or pretreated with BA-12 or BP-14 for 24 hours, incubated with standard medium for 10 days at 37° C. and 5% CO2. Colonies were fixed with methanol/acetic acid (3:1) and stained with 0.25% crystal violet. The crystal violet of fixed cells was solubilized with 1% SDS and the absorbance was photometrically determined at 560 nm."}, "CDK5/p35": {"target": "T1, CDK5/p35 (Homo sapiens, UniProt Q00535)", "T1 construct": "purchased ProQinase GmbH (Freiburg, Germany)", "T1 sequence (Q00535 whole entry)": "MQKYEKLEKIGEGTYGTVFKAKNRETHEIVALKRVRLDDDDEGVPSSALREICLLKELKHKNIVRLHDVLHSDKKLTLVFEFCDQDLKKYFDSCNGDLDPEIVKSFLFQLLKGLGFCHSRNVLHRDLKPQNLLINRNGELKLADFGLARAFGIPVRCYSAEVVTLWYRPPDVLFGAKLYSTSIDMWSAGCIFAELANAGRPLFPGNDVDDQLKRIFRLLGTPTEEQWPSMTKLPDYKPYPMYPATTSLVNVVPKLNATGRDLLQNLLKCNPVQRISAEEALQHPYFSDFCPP", "T1 sequence (Q15078 whole entry partner)": "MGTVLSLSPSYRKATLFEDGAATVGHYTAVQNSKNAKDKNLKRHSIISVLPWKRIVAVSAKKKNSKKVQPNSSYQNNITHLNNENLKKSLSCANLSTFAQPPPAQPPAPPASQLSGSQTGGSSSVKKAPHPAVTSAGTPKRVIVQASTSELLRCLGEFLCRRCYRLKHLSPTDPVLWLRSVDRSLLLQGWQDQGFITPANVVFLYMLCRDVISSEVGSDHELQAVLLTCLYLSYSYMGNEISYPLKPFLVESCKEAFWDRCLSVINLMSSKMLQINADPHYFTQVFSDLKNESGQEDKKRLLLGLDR", "test": "Kinase inhibition assay, recombinant kinase, [γ-33P]ATP", "assay_type": "biochemical", "details": "Table 12; read-out: IC50, CDK5/p25NCK"}, "[4]": {"tested_on": "caspases-3/7 in Hep3B carcinoma cells", "test": "Caspase-3/7 activity in lysates of treated cells (Example 33)", "assay_type": "cell-based, human", "details": "24 h treatment, concentration of 3xIC50", "procedure": "Measurements of proapoptotic properties of BP14 were based on quantification of enzymatic activities of caspases-3/7. For caspase assays, treated cells were harvested by centrifugations and homogenized in an extraction buffer (10 mM KCl, 5 mM Hepes, 1 mM EDTA, 1 mM EGTA, 0.2% CHAPS, inhibitors of proteases, pH 7.4) on ice for 20 min. The homogenates were clarified by centrifugation at 10,000 g for 20 min at 4° C., then proteins were quantified by the Bradford method and diluted to the same concentration. Lysates were then incubated for 5 h with 100 μM Ac-DEVD-AMC as substrate (Sigma-Aldrich) in an assay buffer (25 mM PIPES, 2 mM EGTA, 2 mM MgCl2, 5 mM DTT, pH 7.3). The fluorescence of the product was measured using a Fluoroskan Ascent microplate reader (Labsystems, Helsinki, Finland) at 346 nm/442 nm (ex/em)."}, "PARP-1": {"tested_on": "PARP-1", "test": "Immunoblot analysis of PARP cleavage", "assay_type": "cell-based, human", "procedure": "Effect of BP14 on cell apoptosis was complemented by immunoblot analysis of selected apoptotic proteins. For immunoblotting, cell were detached with rubber policeman and washed three times with ice-cold PBS and lysed in buffer (50 mM Tris, pH 7.4, 250 mM NaCl, 5 mM EDTA, 50 mM NaF, 1 mM Na3VO4, 1% Nonidet P40) containing mixture of protease and phosphatase inhibitors (Sigma-Aldrich, USA). 20 μg of total proteins were separated by SDS-polyacrylamide gel electrophoresis (SDS-PAGE) and transferred onto nitrocellulose membranes. Membranes were blocked in 5% milk and 0.1% Tween 20 in PBS and probed overnight with specific antibodies for PARP-1 (clone F-2; Santa Cruz Biotechnology, USA), Mcl-1 (S-19; Santa Cruz Biotechnology, USA) and β-actin (C-4, Santa Cruz Biotechnology, USA). All primary antibodies were diluted in PBS containing 5% powdered milk; 0.1% Tween 20. Peroxidase conjugated rabbit anti-mouse immunoglobulin or porcine anti-rabbit immunoglobulin antisera (DAKO, Denmark) were used as the secondary antibodies and visualised with ECL reagents (Amersham-Pharmacia, Little Chalfont, UK).\nImmunoblotting was performed as described previously (36). The primary antibodies were used at the dilutions: anti-phospho-Ser5 RNA Pol II (CDK7; Bethyl Laboratories, Montgomery, USA), 1:1,000; anti-phospho-Ser2 RNA Pol II (CDK9; Bethyl Laboratories, Montgomery, USA), 1:1,000; anti-RNA Pol II (Santa Cruz Biotechnology, Santa Cruz, USA), 1:1,000; anti-PARP (Cell Signaling Technology, Beverly, USA), 1:1,000; anti-β-actin (Sigma, St. Louis, USA), 1:2.500. Horseradish peroxidase-conjugated secondary antibodies (Calbiochem, LaJolla, USA) were used at dilutions of 1:10,000."}}}
{"smiles": "NC1CCC(Nc2nc(NCc3ccc(-c4ccco4)nc3)c3ncn(C4CCCC4)c3n2)CC1", "note": "(stereo not drawn) [BP14, N^2-(4-amino-cyclohexyl)-9-cyclopentyl-N^6-(6-furan-2-yl-pyridin-3-ylmethyl)-9H-purine-2,6-diamine]", "values": [{"measurement": "cell cycle distribution", "setting": "HepG2 and PLC cells [1]", "result": "accumulation of HepG2 and PLC cells in the G2 phase"}, {"measurement": "IC50", "setting": "[2]", "result": 0.48, "unit": "µM"}, {"measurement": "IC50", "setting": "PLC/PRF/5 (PLC)", "result": 0.02, "unit": "µM"}, {"measurement": "IC50", "setting": "HepG2", "result": 0.12, "unit": "µM"}, {"measurement": "IC50", "setting": "Hep3B", "result": 0.08, "unit": "µM"}, {"measurement": "reduction of clonogenic growth behavior", "setting": "HepG2 and PLC cells [3]", "result": "more than 15 fold"}, {"measurement": "IC50", "setting": "CDK5/p35", "result": 0.015, "unit": "µM"}, {"measurement": "activity of caspase-3/7 compared with the untreated control", "setting": "[4]", "result": "twenty-fold increase"}, {"measurement": "cleavage of PARP and p53 expression", "setting": "PARP-1; 0.2 μM, HepG2 and p53-mutated PLC cells", "result": "induced cleavage of PARP and p53 expression"}, {"measurement": "protein level of PARP-1", "setting": "PARP-1; HUH-7 cells, concentration up to 3xIC50", "result": "no effect"}, {"measurement": "caspase-3-cleaved PARP-1 fragment at 89 kDa", "setting": "PARP-1; Hep3B and AHK3p cells, 24 hours", "result": "markedly observed"}, {"measurement": "PARP processing in PHHs", "setting": "PARP-1; primary human hepatocytes", "result": "failed to induce PARP processing"}]}
